Measurements from the supplement of paper PMC8617591.

What was measured:
[1] = test system: Mycobacterium tuberculosis Erdman (autoluminescent); test: FIC90 (Loewe) at 90% inhibition (log2); higher = more antagonistic
Method: (§1)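 DiaMOND equipotent two-drug combination dose responses against autoluminescent M. tuberculosis Erdman in 8 in vitro models. Read-out is OD600, or luminescence for the intracellular and dormancy models, normalised to untreated wells. Hill-fit Einf, AUC25 and GRinf are potency metrics; FIC50 and FIC90 are Loewe-additivity fractional inhibitory concentrations, given as log2 (negative = synergy). Replicates are averaged.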

[2] = test system: Mycobacterium tuberculosis Erdman (autoluminescent); test: FIC50 (Loewe) at 50% inhibition (log2); higher = more antagonistic
Method: as §1

[3] = test system: Mycobacterium tuberculosis Erdman (autoluminescent); test: Einf, fitted maximum growth inhibition of combination (fraction); higher = stronger maximal inhibition
Method: as §1

[4] = test system: Mycobacterium tuberculosis Erdman (autoluminescent); test: AUC25, normalised area under dose response up to IC25 (fraction (0-1)); higher = more potent at low dose
Method: as §1

[5] = test system: Mycobacterium tuberculosis Erdman (autoluminescent); test: GRinf, maximum normalised growth rate inhibition (unitless (-1 to 1)); higher = less effect (negative = killing)
Method: as §1

COc1nc2ccc(Br)cc2cc1[C@@H](c1ccccc1)[C@@](O)(CCN(C)C)c1cccc2ccccc12 [bedaquiline] + CC[C@@H](CO)NCCN[C@@H](CC)CO [ethambutol]
Settings	AUC25, [4]	Einf, [3]	FIC50, [2]	FIC90, [1]	GRinf, [5]
in vitro model: acidic pH 5.7, time point: constant (~7 days, model-specific)	0.133	0.831	0.111	–	-0.514
in vitro model: acidic pH 5.7, time point: terminal (~4-5 doublings, model-specific)	0.0618	0.961	0.595	-0.0708	-0.42
in vitro model: intracellular J774, time point: constant = terminal	–	1	–	-0.00203	-0.728

Settings	AUC25, [4]	Einf, [3]	FIC50, [2]	FIC90, [1]	GRinf, [5]
in vitro model: butyrate, time point: constant (~7 days, model-specific)	0.0683	0.948	0.277	–	-0.0865
in vitro model: butyrate, time point: terminal (~4-5 doublings, model-specific)	0.0577	0.978	0.142	-0.418	-0.0993
in vitro model: cholesterol 0.05 mM, time point: constant (~7 days, model-specific)	0.0646	0.736	0.507	–	-0.236
in vitro model: cholesterol 0.05 mM, time point: terminal (~4-5 doublings, model-specific)	0.0688	0.956	0.89	0.731	-0.404
in vitro model: cholesterol-high 0.2 mM, time point: constant (~7 days, model-specific)	0.026	0.994	0.819	–	-0.858
in vitro model: cholesterol-high 0.2 mM, time point: terminal (~4-5 doublings, model-specific)	0.0312	1	0.85	0.757	-0.687
in vitro model: dormancy (butyrate + nitrate, low O2), time point: constant (~7 days, model-specific)	0.139	0.866	1.04	–	0.338
in vitro model: dormancy (butyrate + nitrate, low O2), time point: terminal (~4-5 doublings, model-specific)	0.131	0.995	0.336	1.24	-0.154
in vitro model: standard 7H9 glycerol, time point: constant = terminal	0.0591	0.949	0.176	-0.108	-0.0657
in vitro model: valerate, time point: constant (~7 days, model-specific)	0.108	0.953	0.0258	–	-0.286
in vitro model: valerate, time point: terminal (~4-5 doublings, model-specific)	0.0819	0.979	0.247	-0.129	-0.0998

COc1nc2ccc(Br)cc2cc1[C@@H](c1ccccc1)[C@@](O)(CCN(C)C)c1cccc2ccccc12 [bedaquiline] + CO[C@H]1/C=C/O[C@@]2(C)Oc3c(C)c(O)c4c(O)c(c(/C=N/N5CCN(C6CCCC6)CC5)c(O)c4c3C2=O)NC(=O)/C(C)=C\C=C\[C@H](C)[C@H](O)[C@@H](C)[C@@H](O)[C@@H](C)[C@H](OC(C)=O)[C@@H]1C [rifapentine]
Settings	AUC25, [4]	Einf, [3]	FIC50, [2]	FIC90, [1]	GRinf, [5]
in vitro model: acidic pH 5.7, time point: constant (~7 days, model-specific)	0.0995	0.969	0.322	0.172	-0.693
in vitro model: acidic pH 5.7, time point: terminal (~4-5 doublings, model-specific)	0.0881	0.998	0.392	0.396	-0.38
in vitro model: intracellular J774, time point: constant = terminal	–	0.943	–	0.658	-0.214

Settings	AUC25, [4]	Einf, [3]	FIC50, [2]	FIC90, [1]	GRinf, [5]
in vitro model: butyrate, time point: constant (~7 days, model-specific)	0.0889	0.933	0.485	0.365	-0.0857
in vitro model: butyrate, time point: terminal (~4-5 doublings, model-specific)	0.0717	0.976	0.482	0.362	-0.102
in vitro model: cholesterol 0.05 mM, time point: constant (~7 days, model-specific)	0.119	0.787	0.249	–	-0.201
in vitro model: cholesterol 0.05 mM, time point: terminal (~4-5 doublings, model-specific)	0.0716	0.93	0.341	0.609	-0.223
in vitro model: cholesterol-high 0.2 mM, time point: constant (~7 days, model-specific)	0.0555	0.969	0.211	-0.159	-0.659
in vitro model: cholesterol-high 0.2 mM, time point: terminal (~4-5 doublings, model-specific)	0.0435	1	0.367	0.259	-0.615
in vitro model: dormancy (butyrate + nitrate, low O2), time point: constant (~7 days, model-specific)	0.072	0.941	0.549	1	0.16
in vitro model: dormancy (butyrate + nitrate, low O2), time point: terminal (~4-5 doublings, model-specific)	0.0609	0.981	0.481	0.635	-0.111
in vitro model: standard 7H9 glycerol, time point: constant = terminal	0.0637	0.949	0.236	0.112	-0.0779
in vitro model: valerate, time point: constant (~7 days, model-specific)	0.0652	0.899	0.621	–	-0.0573
in vitro model: valerate, time point: terminal (~4-5 doublings, model-specific)	0.0336	0.955	0.678	0.464	-0.0667

COc1nc2ccc(Br)cc2cc1[C@@H](c1ccccc1)[C@@](O)(CCN(C)C)c1cccc2ccccc12 [bedaquiline] + CO[C@H]1/C=C/O[C@@]2(C)Oc3c(C)c(O)c4c(O)c(c(/C=N/N5CCN(C)CC5)c(O)c4c3C2=O)NC(=O)/C(C)=C\C=C\[C@H](C)[C@H](O)[C@@H](C)[C@@H](O)[C@@H](C)[C@H](OC(C)=O)[C@@H]1C [rifampicin]
Settings	AUC25, [4]	Einf, [3]	FIC50, [2]	FIC90, [1]	GRinf, [5]
in vitro model: acidic pH 5.7, time point: constant (~7 days, model-specific)	0.11	0.966	0.235	-0.844	-0.709
in vitro model: acidic pH 5.7, time point: terminal (~4-5 doublings, model-specific)	0.0796	0.995	0.0554	-0.216	-0.353
in vitro model: intracellular J774, time point: constant = terminal	–	0.963	–	0.648	-0.255

Settings	AUC25, [4]	Einf, [3]	FIC50, [2]	FIC90, [1]	GRinf, [5]
in vitro model: butyrate, time point: constant (~7 days, model-specific)	0.112	0.958	0.393	0.174	-0.181
in vitro model: butyrate, time point: terminal (~4-5 doublings, model-specific)	0.0949	0.988	0.398	0.429	-0.18
in vitro model: cholesterol 0.05 mM, time point: constant (~7 days, model-specific)	0.104	0.722	0.0154	–	-0.0966
in vitro model: cholesterol 0.05 mM, time point: terminal (~4-5 doublings, model-specific)	0.0851	0.919	0.343	-0.364	-0.181
in vitro model: cholesterol-high 0.2 mM, time point: constant (~7 days, model-specific)	0.0637	0.982	0.194	-0.00523	-0.639
in vitro model: cholesterol-high 0.2 mM, time point: terminal (~4-5 doublings, model-specific)	0.058	1	0.318	0.223	-0.64
in vitro model: dormancy (butyrate + nitrate, low O2), time point: constant (~7 days, model-specific)	0.0984	0.921	0.234	0.896	0.149
in vitro model: dormancy (butyrate + nitrate, low O2), time point: terminal (~4-5 doublings, model-specific)	0.0644	0.985	0.332	0.603	-0.312
in vitro model: standard 7H9 glycerol, time point: constant = terminal	0.0718	0.93	0.22	0.326	-0.0375
in vitro model: valerate, time point: constant (~7 days, model-specific)	0.0727	0.914	0.714	–	-0.108
in vitro model: valerate, time point: terminal (~4-5 doublings, model-specific)	0.0313	0.956	0.779	0.467	-0.0734

COc1nc2ccc(Br)cc2cc1[C@@H](c1ccccc1)[C@@](O)(CCN(C)C)c1cccc2ccccc12 [bedaquiline] + COc1c(N2C[C@@H]3CCCN[C@@H]3C2)c(F)cc2c(=O)c(C(=O)O)cn(C3CC3)c12 [moxifloxacin]
Settings	AUC25, [4]	Einf, [3]	FIC50, [2]	FIC90, [1]	GRinf, [5]
in vitro model: acidic pH 5.7, time point: constant (~7 days, model-specific)	0.111	0.834	0.282	–	-0.5
in vitro model: acidic pH 5.7, time point: terminal (~4-5 doublings, model-specific)	0.0707	0.974	0.69	0.144	-0.382
in vitro model: intracellular J774, time point: constant = terminal	–	0.975	–	0.878	-0.309

Settings	AUC25, [4]	Einf, [3]	FIC50, [2]	FIC90, [1]	GRinf, [5]
in vitro model: butyrate, time point: constant (~7 days, model-specific)	0.092	0.966	0.816	0.849	-0.175
in vitro model: butyrate, time point: terminal (~4-5 doublings, model-specific)	0.059	0.981	0.823	0.833	-0.131
in vitro model: cholesterol 0.05 mM, time point: constant (~7 days, model-specific)	0.112	0.777	0.158	–	-0.237
in vitro model: cholesterol 0.05 mM, time point: terminal (~4-5 doublings, model-specific)	0.0888	0.951	0.528	0.279	-0.314
in vitro model: cholesterol-high 0.2 mM, time point: constant (~7 days, model-specific)	0.0699	0.968	0.333	0.255	-0.699
in vitro model: cholesterol-high 0.2 mM, time point: terminal (~4-5 doublings, model-specific)	0.0477	1	0.532	0.271	-0.644
in vitro model: dormancy (butyrate + nitrate, low O2), time point: constant (~7 days, model-specific)	0.0664	0.921	0.814	0.437	0.176
in vitro model: dormancy (butyrate + nitrate, low O2), time point: terminal (~4-5 doublings, model-specific)	0.0916	0.982	0.702	1.39	-0.143
in vitro model: standard 7H9 glycerol, time point: constant = terminal	0.105	0.993	0.0351	0.704	-0.102
in vitro model: valerate, time point: constant (~7 days, model-specific)	0.0901	0.911	0.469	–	-0.123
in vitro model: valerate, time point: terminal (~4-5 doublings, model-specific)	0.0647	0.966	0.485	0.622	-0.0943
